Test system: Hepatitis C virus
Assay: Antiviral activity against Hepatitis C virus J6/JFH1 infected in human Huh7.5.1 cells assessed as reduction in amount of core HCV protein after 72 hrs by focus formation assay
Format: functional, organism-based, Hepacivirus hominis
Conditions: J6/JFH1, Huh-7, 72 h

IC50 | Compound
> 40 µM | COC1=C(O)C2=C3O[C@H](C)C(C)(C)[C@]3(O)C(=O)c3c(C)cc(O)c(c32)C1=O
5.1 µM | C[C@H]1CCN2CC34Cc5c([nH]c6c7c(ccc56)OC(C)(C)CC7=O)C(C)(C)[C@@H]3CC12C(=O)N4 (some centres not stated)
> 40 µM | C[C@H]1CCN2C[C@]34C[C@@]5(C(=O)Nc6c5ccc5c6C(=O)CC(C)(C)O5)C(C)(C)[C@@H]3C[C@]12C(=O)N4
> 40 µM | COc1c(O)c2c3c(c1O)C(=O)[C@@]1(O)C(=C3C(C)=C(O)C2=O)O[C@@H](C)C1(C)C
> 40 µM | COc1c(O)c2c3c(c1O)C(=O)[C@@]1(O)C(=C3C(C)=CC2=O)O[C@H](C)C1(C)C
> 40 µM | COC1=N[C@]23CN4CC[C@@](C)(O)[C@]14C[C@H]2C(C)(C)[C@@]1(C3)C(=O)Nc2c1ccc1c2C(=O)CC(C)(C)O1

Compound | IC50
C[C@H]1CCN2C[C@]34Cc5c([nH]c6ccccc56)C(C)(C)[C@@H]3C[C@]12C(=O)N4 | > 40 µM
